# Assay results from ChEMBL document CHEMBL5500336, “Recent advances in developing modified C14 side chain pleuromutilins as novel antibacterial agents” (Eur J Med Chem, 2024).
# Experiments:
# Staphylococcus aureus [1] = test: Antibacterial activity against […] Staphylococcus aureus ATCC 43300 assessed as inhibition of bacterial growth; format: functional
# Staphylococcus aureus [2] = test: Antibacterial activity against […] Staphylococcus aureus ATCC 43300 assessed as inhibition of bacterial growth measured after 24 hrs by MH broth based assay; format: functional
# Staphylococcus aureus [3] = test: Antimicrobial activity against […] Staphylococcus aureus ATCC 33591 assessed as reduction in microbial growth incubated for 24 hrs by CLSI protocol based analysis; format: functional
# Staphylococcus aureus [4] = test: Antibacterial activity against […] Staphylococcus aureus ATCC 25923 assessed as reduction in bacterial growth measured after 24 hrs by MH broth based assay; format: functional
# [5] = tested on: Staphylococcus epidermidis; test: Antibacterial activity against […] Staphylococcus epidermidis ATCC 51625 assessed as inhibition of bacterial growth measured after 24 hrs by MH broth based assay; format: functional
# Staphylococcus aureus [6] = test: Antibacterial activity against […] Staphylococcus aureus BNCC 337371 assessed as bacterial growth inhibition incubated for 18 to 24 hrs by NCCLS based assay; format: functional; settings: time 18-24 hrs
# Staphylococcus = test: Antimicrobial activity against methicillin-resistant coagulase negative Staphylococcus P1369 at 1 nmol relative to control; format: functional
# Staphylococcus aureus [7] = test: Antibacterial activity against Methicillin-sensitive Staphylococcus aureus assessed as bacterial growth inhibition; format: functional
# [8] = tested on: Staphylococcus epidermidis; test: Antibacterial activity against […] Staphylococcus epidermidis ATCC 35984 after 16 to 18 hrs by CLSI protocol based broth microdilution assay; format: functional; settings: time 16-18 hrs
# [9] = tested on: Staphylococcus epidermidis; test: Antibacterial activity against methicillin-sensitive Staphylococcus epidermidis ATCC 12228 assessed as reduction in bacterial growth incubated for 18 hrs by agar dilution method; format: functional
# Staphylococcus aureus [10] = test: Antibacterial activity against Methicillin-resistant Staphylococcus aureus assessed as bacterial growth inhibition; format: functional
# Staphylococcus aureus [11] = test: Antibacterial activity against Staphylococcus aureus ATCC 25923 assessed as reduction in bacterial growth incubated for 24 hrs by serial dilution method; format: functional
# Staphylococcus aureus [12] = test: Antibacterial activity against […] Staphylococcus aureus ATCC 33592 assessed as bacterial growth inhibition; format: functional
# Staphylococcus aureus [13] = test: Antibacterial activity against […] Staphylococcus aureus ATCC 43300 assessed as reduction in microbial growth after 16 hrs by broth microdilution method; format: functional
# Streptococcus pneumoniae = test: Antibacterial activity against Streptococcus pneumoniae B1 assessed as reduction in bacterial growth; format: functional
# Staphylococcus aureus [14] = test: Antimicrobial activity against methicillin-Staphylococcus aureus 29213 assessed as inhibition of microbial growth incubated for 24 hrs by broth-microdilution assay; format: functional
# [15] = Cytotoxicity against mouse RAW264.7 cells assessed as reduction in cell viability incubated for 48 hrs by MTT assay; format: toxicity, cell-based
# Staphylococcus aureus [16] = test: Antibacterial activity against methicillin-sensitive Staphylococcus aureus assessed as reduction in microbial growth; format: functional
# Staphylococcus aureus [17] = test: Antibacterial activity against […] Staphylococcus aureus ATCC 43300 assessed as reduction in bacterial growth by CLSI protocol based broth microdilution method; format: functional
# Escherichia coli = test: Antibacterial activity against Escherichia coli ATCC 25922 assessed as bacterial growth inhibition measured after 18 hrs by CLSI based method; format: functional
# Staphylococcus aureus [18] = test: Antimicrobial activity against […] Staphylococcus aureus ATCC 33591 assessed as inhibition of microbial growth measured after 20 to 24 hrs incubation by CLSI method; format: functional; settings: time 20-24 hrs
# Staphylococcus aureus [19] = test: Antimicrobial activity against […] Staphylococcus aureus ATCC 43300 assessed as inhibition of microbial growth measured after 20 to 24 hrs incubation by CLSI method; format: functional; settings: time 20-24 hrs
smiles,measurement,setting,value
C=C[C@]1(C)C[C@@H](OC(=O)CSc2ccc(NC(=O)c3cccc(F)c3)cc2)[C@]2(C)[C@H](C)CC[C@]3(CCC(=O)[C@H]32)[C@@H](C)[C@@H]1O,MIC,Staphylococcus aureus [1],0.03 µg/mL
same,MBC,Staphylococcus aureus [2],0.03 µg/mL
C=C[C@]1(C)C[C@@H](OC(=O)CSc2nc3c(F)cccc3o2)[C@]2(C)[C@H](C)CC[C@]3(CCC(=O)[C@H]32)[C@@H](C)[C@@H]1O,MIC,Staphylococcus aureus [3],0.125 µg/mL
C=C[C@]1(C)C[C@@H](OC(=O)CSC2=NC(C)=C(C(C)=O)C(C)N2)[C@]2(C)[C@H](C)CC[C@]3(CCC(=O)[C@H]32)[C@@H](C)[C@@H]1O (some centres undefined),MIC,Staphylococcus aureus [4],0.25 µg/mL
same,MIC,[5],0.25 µg/mL
same,MIC,Staphylococcus aureus [6],0.125 µg/mL
C=C[C@]1(C)C[C@@H](OC(=O)CS[C@@H]2CC[C@@H](N)C[C@H]2O)[C@]2(C)[C@H](C)CC[C@]3(CCC(=O)[C@H]32)[C@@H](C)[C@@H]1O [LEFAMULIN],Activity,Staphylococcus,3.4%
C=C[C@]1(C)C[C@@H](OC(=O)CSC2=NC(C)=C(C(=O)OC)C(C)N2)[C@]2(C)[C@H](C)CC[C@]3(CCC(=O)[C@H]32)[C@@H](C)[C@@H]1O (some centres undefined),MIC,Staphylococcus aureus [4],0.25 µg/mL
same,MIC,[5],0.125 µg/mL
same,MIC,Staphylococcus aureus [6],0.25 µg/mL
C=C[C@]1(C)C[C@@H](OC(=O)CSc2ccc(NC(=O)c3ccc(F)cc3)cc2)[C@]2(C)[C@H](C)CC[C@]3(CCC(=O)[C@H]32)[C@@H](C)[C@@H]1O,MIC,Staphylococcus aureus [1],0.03 µg/mL
same,MBC,Staphylococcus aureus [2],0.03 µg/mL
C=C[C@]1(C)C[C@@H](OC(=O)CSCc2csc(N)n2)[C@]2(C)[C@H](C)CC[C@]3(CCC(=O)[C@H]32)[C@@H](C)[C@@H]1O,MIC,Staphylococcus aureus [7],0.063 µg/mL
same,MIC,[8],0.063 µg/mL
same,MIC,[9],0.063 µg/mL
same,MIC,Staphylococcus aureus [10],0.063 µg/mL
C=C[C@]1(C)C[C@@H](OC(=O)CSC2=NC(C)=C(C(=O)OCC)C(C)N2)[C@]2(C)[C@H](C)CC[C@]3(CCC(=O)[C@H]32)[C@@H](C)[C@@H]1O (some centres undefined),MIC,Staphylococcus aureus [4],0.125 µg/mL
same,MIC,[5],0.06 µg/mL
same,MIC,Staphylococcus aureus [6],0.06 µg/mL
C=C[C@]1(C)C[C@@H](OC(=O)CN2CCN(C(=O)CNC[C@H]3CN(c4ccc(Cl)cc4)C(=O)O3)CC2)[C@]2(C)[C@H](C)CC[C@]3(CCC(=O)[C@H]32)[C@@H](C)[C@@H]1O,MIC,Staphylococcus aureus [11],0.008 µg/mL
C=C[C@]1(C)C[C@@H](OC(=O)CSc2ccccc2N)[C@]2(C)[C@H](C)CC[C@]3(CCC(=O)[C@H]32)[C@@H](C)[C@@H]1O,MIC,Staphylococcus aureus [12],0.5 µg/mL
same,MIC,Staphylococcus aureus [13],0.016 µg/mL
same,MIC,Streptococcus pneumoniae,0.016 µg/mL
C=C[C@]1(C)C[C@@H](OC(=O)CSc2ccc(NC(=O)c3ccccc3F)cc2)[C@]2(C)[C@H](C)CC[C@]3(CCC(=O)[C@H]32)[C@@H](C)[C@@H]1O,MIC,Staphylococcus aureus [1],0.03 µg/mL
same,MBC,Staphylococcus aureus [2],0.062 µg/mL
C=C[C@]1(C)C[C@@H](OC(=O)CSc2nnc(-c3cccs3)o2)[C@]2(C)[C@H](C)CC[C@]3(CCC(=O)[C@H]32)[C@@H](C)[C@@H]1O,MIC,Staphylococcus aureus [14],0.125 µg/mL
same,IC50 at 48 h,[15],17.9 µg/mL
C=C[C@]1(C)C[C@@H](OC(=O)CSc2cccc(NC(=O)Nc3ccc(C#N)cc3)c2)[C@]2(C)[C@H](C)CC[C@]3(CCC(=O)[C@H]32)[C@@H](C)[C@@H]1O,MIC,Staphylococcus aureus [16],0.06 µg/mL
C=C[C@]1(C)C[C@@H](OC(=O)CSCc2csc(NC(=O)CN3CCC[C@@H]3CO)n2)[C@]2(C)[C@H](C)CC[C@]3(CCC(=O)[C@H]32)[C@@H](C)[C@@H]1O,MIC,Staphylococcus aureus [17],0.063 µg/mL
same,MIC,Staphylococcus aureus [7],0.063 µg/mL
same,MIC,[8],0.063 µg/mL
same,MIC,[9],0.063 µg/mL
same,MIC,Staphylococcus aureus [10],0.063 µg/mL
C=C[C@]1(C)C[C@@H](OC(=O)CSc2ccc(NC(=O)c3cccs3)cc2)[C@]2(C)[C@H](C)CC[C@]3(CCC(=O)[C@H]32)[C@@H](C)[C@@H]1O,MIC,Staphylococcus aureus [1],0.03 µg/mL
same,MBC,Staphylococcus aureus [2],0.03 µg/mL
C=C[C@]1(C)C[C@@H](OC(=O)CN2CCN(c3ccc(C4CC(c5ccccc5[N+](=O)[O-])=NN4)cc3)CC2)[C@]2(C)[C@H](C)CC[C@]3(CCC(=O)[C@H]32)[C@@H](C)[C@@H]1O (some centres undefined),MIC,Escherichia coli,2 µg/mL
same,MIC,Staphylococcus aureus [18],2 µg/mL
same,MIC,Staphylococcus aureus [19],2 µg/mL
C=C[C@]1(C)C[C@@H](OC(=O)CSc2ccccc2NC(=O)c2ccccc2C)[C@]2(C)[C@H](C)CC[C@]3(CCC(=O)[C@H]32)[C@@H](C)[C@@H]1O,MIC,Staphylococcus aureus [13],0.25 µg/mL
C=C[C@]1(C)C[C@@H](OC(=O)CN2CCN(c3ccc(C(=O)/C=C/c4ccc([N+](=O)[O-])cc4)cc3)CC2)[C@]2(C)[C@H](C)CC[C@]3(CCC(=O)[C@H]32)[C@@H](C)[C@@H]1O,MIC,Staphylococcus aureus [18],0.5 µg/mL
same,MIC,Staphylococcus aureus [19],0.5 µg/mL
C=C[C@]1(C)C[C@@H](OC(=O)CN2CCN(c3ccc(C(=O)/C=C/c4ccc(N)cc4)cc3)CC2)[C@]2(C)[C@H](C)CC[C@]3(CCC(=O)[C@H]32)[C@@H](C)[C@@H]1O,MIC,Staphylococcus aureus [18],0.5 µg/mL
same,MIC,Staphylococcus aureus [19],0.5 µg/mL
C=C[C@]1(C)C[C@@H](OC(=O)CSc2nc(C)c(C(=O)OCC)c(C)n2)[C@]2(C)[C@H](C)CC[C@]3(CCC(=O)[C@H]32)[C@@H](C)[C@@H]1O,MIC,Staphylococcus aureus [4],≤ 0.016 µg/mL
same,MIC,[5],0.015 µg/mL
same,MIC,Staphylococcus aureus [6],0.015 µg/mL
C=C[C@]1(C)C[C@@H](OC(=O)CSc2nc(C)c(C(=O)OC)c(C)n2)[C@]2(C)[C@H](C)CC[C@]3(CCC(=O)[C@H]32)[C@@H](C)[C@@H]1O,MIC,Staphylococcus aureus [4],0.016 µg/mL
same,MIC,[5],0.03 µg/mL
same,MIC,Staphylococcus aureus [6],0.015 µg/mL
C=C[C@]1(C)C[C@@H](OC(=O)CSc2ccc(NC(=O)c3ccc(C#N)cc3)cc2)[C@]2(C)[C@H](C)CC[C@]3(CCC(=O)[C@H]32)[C@@H](C)[C@@H]1O,MIC,Staphylococcus aureus [1],0.015 µg/mL
same,MBC,Staphylococcus aureus [2],0.03 µg/mL
C=C[C@]1(C)C[C@@H](OC(=O)CSc2ccc(NC(=O)c3ccco3)cc2)[C@]2(C)[C@H](C)CC[C@]3(CCC(=O)[C@H]32)[C@@H](C)[C@@H]1O,MIC,Staphylococcus aureus [1],0.015 µg/mL
same,MBC,Staphylococcus aureus [2],0.03 µg/mL
C=C[C@]1(C)C[C@@H](OC(=O)CSCc2csc(NC(=O)CN3CCCCC3)n2)[C@]2(C)[C@H](C)CC[C@]3(CCC(=O)[C@H]32)[C@@H](C)[C@@H]1O,MIC,Staphylococcus aureus [7],0.063 µg/mL
same,MIC,[8],0.063 µg/mL
same,MIC,[9],0.063 µg/mL
same,MIC,Staphylococcus aureus [10],0.063 µg/mL
C=C[C@]1(C)C[C@@H](OC(=O)CN2CCN(c3ccc(C4CC(N)=NC=C4c4ccccc4[N+](=O)[O-])cc3)CC2)[C@]2(C)[C@H](C)CC[C@]3(CCC(=O)[C@H]32)[C@@H](C)[C@@H]1O (some centres undefined),MIC,Escherichia coli,8 µg/mL
same,MIC,Staphylococcus aureus [18],1 µg/mL
same,MIC,Staphylococcus aureus [19],1 µg/mL
C=C[C@]1(C)C[C@@H](OC(=O)CSc2ccccc2NC(=O)c2cccc(F)c2)[C@]2(C)[C@H](C)CC[C@]3(CCC(=O)[C@H]32)[C@@H](C)[C@@H]1O,MIC,Staphylococcus aureus [13],0.125 µg/mL
C=C[C@]1(C)C[C@@H](OC(=O)CSc2nc(C)c(C(C)=O)c(C)n2)[C@]2(C)[C@H](C)CC[C@]3(CCC(=O)[C@H]32)[C@@H](C)[C@@H]1O,MIC,Staphylococcus aureus [4],0.016 µg/mL
same,MIC,[5],0.03 µg/mL
same,MIC,Staphylococcus aureus [6],0.015 µg/mL
